How the values were obtained:
Assay type in all cases: cell-based
gram positive bacteria = assay: In vitro antibacterial activity compared with standard ampicillin
Experimental: (§1) The pure bacterial cultures of test bacteria were procured from laboratory culture collection maintained at RRL, Jammu. The bacterial organisms were subcultured on L B. broth. Following filter paper disc agar diffusion method (Maruzella, J. C. and Henry, P. A. 1958, the antifungal activity of perfume oils. J. Amer. Pharm. Ass., 47:471-476).
(§2) 20 ml of sterilized medium was taken in each petriplate. After the agar has hardened, 2 ml of 24 hrs. broth culture of organism was added to each petriplate and mixed thoroughly by rotatory motion of the plate and allowed to set. The sterilized Whatman filter paper No. 1 discs (4 mm diameter) were thoroughly moistened with 5 μl of (+)-1-bisabolone of formula 1 in dilution of 1:50, 1:100 in the solvent Tween-80 and placed on the seeded agar plates. The standard antibiotic disc of ampicillin was placed on surface of each seeded petriplate as standard for anti-bacterial activity. Three each of seeded agar plates for each organism were incubated at 37° C. for 36 hrs. […] The zone of inhibition was measured with the help of a divider. The […] were performed in triplicate and average zones of inhibition for anti-bacterial activity are recorded in Table-2.

other test bacteria = assay: In vitro antibacterial activity, other test bacteria
Experimental: as §1, §2

Bacillus cereus = assay: Filter paper disc agar diffusion, antibacterial activity
Experimental: as §1, §2

Staphylococcus aureus = assay: as above
Experimental: as §1, §2

Bacillus subtilis = assay: as above
Experimental: as §1, §2

[1] = Pure 1, 4 mm disc, 37° C., 36 hrs
[2] = dilution 1:50 in Tween-80, 5 μl on 4 mm disc, 37° C., 36 hrs
[3] = dilution 1:100 in Tween-80, 5 μl on 4 mm disc, 37° C., 36 hrs
[4] = control (standard antibiotic disc of ampicillin)

With `CC(C)=CCC[C@H](C)[C@H]1CCC(C)=CC1=O` [(+)-1-bisabolone] the “activity compared with the standard ampicillin” value (gram positive bacteria) was “far better activity”, the “in vitro antibacterial activity (in words)” value (other test bacteria) was “good to moderate activity” and the “in vitro antibacterial activity (in words)” value (Bacillus cereus) was “strongly active”. The “Diameter (mm) of zone inhibition” value (Bacillus cereus; [1]) was 21 mm, the “Diameter (mm) of zone inhibition” value (Bacillus cereus; [2]) was 13 mm and the “Diameter (mm) of zone inhibition” value (Bacillus cereus; [3]) was 9 mm. For the same compound, the “in vitro antibacterial activity (in words)” value (Staphylococcus aureus) was “strongly active”, the “Diameter (mm) of zone inhibition” value (Staphylococcus aureus; [1]) was 24 mm and the “Diameter (mm) of zone inhibition” value (Staphylococcus aureus; [2]) was 19 mm. The “Diameter (mm) of zone inhibition” value (Staphylococcus aureus; [3]) was 13 mm, the “in vitro antibacterial activity (in words)” value (Bacillus subtilis) was “strongly active” and the “Diameter (mm) of zone inhibition” value (Bacillus subtilis; [1]) was 19 mm. The “Diameter (mm) of zone inhibition” value (Bacillus subtilis; [2]) was 15 mm and the “Diameter (mm) of zone inhibition” value (Bacillus subtilis; [3]) was 13 mm.

In the case of `CC1(C)S[C@@H]2[C@H](NC(=O)[C@H](N)c3ccccc3)C(=O)N2[C@H]1C(=O)O` [control, ampicillin, reference compound], the “Diameter (mm) of zone inhibition” value (Bacillus cereus; [4]) is reported as 4 mm, the “Diameter (mm) of zone inhibition” value (Staphylococcus aureus; [4]) is reported as 6 mm and the “Diameter (mm) of zone inhibition” value (Bacillus subtilis; [4]) is reported as 5 mm.

— patent US6787674B1, “(+)-1-Bisabolone isolated from cymbopogon flexuosus and antibacterial activity thereof” (Council of Scientific and Industrial Research, priority 2003, dated 2004)
